From US20200163984A1, “USE OF ISOVALERYL SPIRAMYCIN I, II AND/OR III IN MANUFACTURING MEDICAMENT FOR TREATING AND/OR PREVENTING TUMOR, AND MEDICAMENT” (SHENYANG FUYANG PHARMACEUTICAL TECHNOLOGY CO., LTD., priority 2017, published 2020)
In brackets after ≈: the same amount, converted by molar mass.

Experiments:
[1] = system: transplanted tumor of human prostate cancer cell PC3; experiment: PC3 transplanted tumor in nude mice
Procedure: Then cell concentration was adjusted to 1×10^7/ml with matrigel, then each nude mouse was inoculated subcutaneously with 0.2 ml of cells at its right armpit and recorded as the first day of inoculation. When the tumor grows to be greater than or equal to 100 mm^3, the mice were randomly divided into 11 groups with 6 mice in each group: a model group, a cyclophosphamide group, isovaleryl spiramycin I groups with doses of 25, 50 and 100 mg/kg, isovaleryl spiramycin II groups with doses of 25, 50 and 100 mg/kg, and isovaleryl spiramycin III groups with doses of 25, 50 and 100 mg/kg. Each group was continuously administered intragastrically for 30 days with a dose of 20 ml/kg. The mice were sacrificed the next day after drug withdrawal and the indicators were tested. The long diameter and short diameter of the tumor, and the body weight of each mouse were recorded every 3 days from drug administration to nude mouse sacrifice.
The body weight of the nude mice and the long diameter (a) and short diameter (b) of the transplanted tumor were measured every 3 days, and the tumor volume (v), relative tumor volume (RTV) and relative tumor proliferation rate (T/C) are calculated respectively according to the following formulas, wherein V=a×b^2/2; RTV=V/V0 (V0 is the tumor volume before administration, V is the tumor volume before sacrifice), and T/C (%)=treatment group RTV/model control group RTV×100%.
Each mouse was weighed and sacrificed. After the tumor was completely stripped off from the body of the mouse, the non-tumor tissues such as blood stains and fat were removed to weigh the tumor and calculate the tumor growth inhibition rate. The average tumor weight of each group of mice is used as an indicator of efficacy. Tumor growth inhibition rate (%)=(1−the average tumor weight of the treatment group/the average tumor weight of the model group)×100%.

[2] = system: transplanted tumor of mouse Lewis lung cancer; experiment: Transplanted tumor of mouse Lewis lung cancer; conditions: for Tumor Volume (mm3) (d 1) / Tumor Volume (mm3) (d30) / Relative Tumor Proliferation Rate (T/C) / Relative Tumor Volume (RTV): title prints KM mouse H22 cells; for Tumor Volume (mm3) (d30): d 30
Procedure: Lewis lung cancer cells were cultured in a RPMI 1640 culture medium containing 10% fetal bovine serum at 37° C. in a 5% CO2 incubator. The cells in the logarithmic growth phase were subjected to trypsinization with 0.25% trypsin, then the cells were collected to be centrifugated to remove the obtained supernatant, then were washed twice with sterile normal saline. […] The Lewis cells were adjusted to 1×10^7/mL in concentration and stored in ice water. 75% ethanol was used to disinfect the skin under the right armpits of the mice, and each C57BL/6 mouse was soon inoculated subcutaneously with 0.2 ml of the cells at its right armpit.
In the Lewis lung cancer model, the mice inoculated with the tumor were randomly divided into groups with 10 mice in each group the next day of inoculation. The groups included: a model control group, a positive drug cyclophosphamide control group (CTX, 30 mg/kg), isovaleryl spiramycin I groups with doses of 13, 26 and 52 mg/kg; isovaleryl spiramycin II groups with doses of 13, 26 and 52 mg/kg; isovaleryl spiramycin III groups with doses of 13, 26 and 52 mg/kg. Each group was continuously administered intragastrically for 15 days with a dose of 20 ml/kg.
The tumor-bearing mice were weighed and sacrificed the next day after the last administration. The subcutaneous tumors were dissected and weighed. The average tumor weight of each group is calculated, and the tumor inhibition rate is calculated.
Tumor inhibition rate=(1−T/C)×100%
T: average tumor weight of the drug-administered group; C: average tumor weight of the blank control group.

[3] = system: human bladder cancer cell T-24; conditions: T-24, MTT
Text: (§1) The purpose of the assay is to evaluate the in vitro cell proliferation inhibition or cytotoxic activity of a tested sample.
(§2) Human breast cancer cells MCF-7 and MDA-MB-231, human hepatoma cells HepG2, human non-small cell lung cancer cells A549, human large cell lung cancer cells H460 and H1299, human renal clear cell adenocarcinoma cell 786-0, human renal cell adenocarcinoma cell 769-P, human glioma cell U251, human glioblastoma cell A172, human tissue lymphoma cell U937, human cervical cancer cell HeLa, human prostate cancer cell PC3, human pancreatic cancer cell PANC-1, human esophageal cancer cell TE-1, human gastric adenocarcinoma cell SGC7901, human colon cancer cell HT-29, human promyelocytic leukemia cell HL-60, human thyroid cancer cell TPC-1, and human bladder cancer cell T-24.
(§3) The inhibition rate of the medicament on tumor cell growth is calculated according to the following formula:
(§4) Tumor cell growth inhibition rate (%)=[A492 (negative control)−A492 (dosing group)]/A492 (negative control)×100%
(§5) And the half-inhibitory concentration (IC50) of the sample is determined therefrom.

[4] = system: human thyroid cancer cell TPC-1; conditions: TPC-1, MTT
Text: as §1, §2, §3, §4, §5

[5] = PC3, 25 mg/kg (low dose) i.g. 30 days
[6] = PC3, 50 mg/kg (medium dose) i.g. 30 days
[7] = PC3, 100 mg/kg (high dose) i.g. 30 days

SMILES: O=P1(N(CCCl)CCCl)NCCCO1 (stereo not shown) [Cyclophosphamide, cyclophosphamide, reference compound]
- Body Weight (d 1) ([1]; PC3, 30 mg/kg i.g. 30 days): 21.57 ± 0.75 g
- Body Weight (d 30) ([1]; PC3, 30 mg/kg i.g. 30 days): 16.43 ± 0.78 g
- Inhibition Rate (tumor growth inhibition rate) ([1]; PC3, 30 mg/kg i.g. 30 days): 70.03%
- Relative Tumor Proliferation Rate (T/C) ([1]; PC3, 30 mg/kg i.g. 30 days): 29.33%
- Relative Tumor Volume (RTV) ([1]; PC3, 30 mg/kg i.g. 30 days): 5.73 ± 2.23
- Tumor Volume (d 1) ([1]; PC3, 30 mg/kg i.g. 30 days): 155.36 ± 34.96 mm3
- Tumor Volume (d 30) ([1]; PC3, 30 mg/kg i.g. 30 days): 834.50 ± 135.35 mm3
- Tumor Weight ([1]; PC3, 30 mg/kg i.g. 30 days): 0.56 ± 0.17 g
- Inhibition Rate (%) ([2]; dose 30 mg/kg): 76.43%
- Tumor Weight ([2]; dose 30 mg/kg): 0.38 ± 0.07 g
- Body Weight (g) (d1) ([2]; dose 30 mg/kg, d 1): 19.62 ± 1.01 g
- Tumor Volume (mm3) (d 1) ([2]; dose 30 mg/kg, d 1): 104.35 ± 30.89 mm3
- Body Weight (g) (d 15) ([2]; dose 30 mg/kg, d 15): 21.38 ± 0.67 g
- Tumor Volume (mm3) (d30) ([2]; dose 30 mg/kg): 371.39 ± 112.68 mm3
- Relative Tumor Proliferation Rate (T/C) ([2]; dose 30 mg/kg): 24.55
- Relative Tumor Volume (RTV) ([2]; dose 30 mg/kg): 3.93 ± 1.86
- tumor inhibition rate ([2]; mouse Lewis lung cancer, CTX 30 mg/kg i.g. 15 days): 76.43%

SMILES: CO[C@@H]1[C@@H](O[C@@H]2O[C@H](C)[C@@H](O[C@H]3C[C@@](C)(O)[C@@H](OC(=O)CC(C)C)[C@H](C)O3)[C@H](N(C)C)[C@H]2O)[C@@H](CC=O)C[C@@H](C)[C@@H](O[C@H]2CC[C@H](N(C)C)[C@@H](C)O2)/C=C/C=C/C[C@@H](C)OC(=O)C[C@H]1O [Isovaleryl spiramycin I, isovaleryl spiramycin I]
- IC50 [3]: 18.68 ± 0.58 µg/mL (≈ 20.1 µM)
- IC50 [4]: 19.97 ± 1.93 µg/mL (≈ 21.5 µM)
- Inhibition Rate (tumor growth inhibition rate) [1, 5]: 33.87%
- Relative Tumor Proliferation Rate (T/C) [1, 5]: 70.43%
- Relative Tumor Volume (RTV) [1, 5]: 13.78 ± 3.15
- Tumor Volume (d 1) [1, 5]: 127.59 ± 6.73 mm3
- Tumor Volume (d 30) [1, 5]: 1758.15 ± 412.68 mm3
- Tumor Weight [1, 5]: 1.24 ± 0.51 g
- Inhibition Rate (tumor growth inhibition rate) [1, 6]: 51.33%
- Relative Tumor Proliferation Rate (T/C) [1, 6]: 49.14%
- Relative Tumor Volume (RTV) [1, 6]: 9.61 ± 3.15
- Tumor Volume (d 1) [1, 6]: 186.59 ± 39.40 mm3
- Tumor Volume (d 30) [1, 6]: 1706.14 ± 347.50 mm3
- Tumor Weight [1, 6]: 0.91 ± 0.33 g
- Inhibition Rate (tumor growth inhibition rate) [1, 7]: 71.01%
- Relative Tumor Proliferation Rate (T/C) [1, 7]: 30.72%
- Relative Tumor Volume (RTV) [1, 7]: 6.01 ± 1.78
- Tumor Volume (d 1) [1, 7]: 175.94 ± 12.32 mm3
- Tumor Volume (d 30) [1, 7]: 1041.69 ± 247.71 mm3
- Tumor Weight [1, 7]: 0.55 ± 0.21 g
- tumor volume and relative tumor volume compared with the model group ([1]; PC3, low, medium and high doses, P<0.05): significantly lower
- mouse weight compared with the model group ([1]; mouse, in vivo): no significant changes
- growth of Lewis lung cancer in mice ([2]; 13, 26 and 52 mg/kg i.g. 15 days): significantly inhibit
- Tumor Volume (mm3) (d 1) ([2]; dose 12.5 mg/kg, d 1): 104.68 ± 20.89 mm3
- Tumor Volume (mm3) (d30) ([2]; dose 12.5 mg/kg): 955.73 ± 330.24 mm3
- Relative Tumor Proliferation Rate (T/C) ([2]; dose 12.5 mg/kg): 57.56
- Relative Tumor Volume (RTV) ([2]; dose 12.5 mg/kg): 9.22 ± 2.95
- Inhibition Rate (%) ([2]; dose 13 mg/kg): 46.94%
- Tumor Weight ([2]; dose 13 mg/kg): 0.85 ± 0.24 g
- Tumor Volume (mm3) (d 1) ([2]; dose 25 mg/kg, d 1): 104.31 ± 19.76 mm3
- Tumor Volume (mm3) (d30) ([2]; dose 25 mg/kg): 756.20 ± 145.84 mm3
- Relative Tumor Proliferation Rate (T/C) ([2]; dose 25 mg/kg): 45.51
- Relative Tumor Volume (RTV) ([2]; dose 25 mg/kg): 7.29 ± 0.82
- Inhibition Rate (%) ([2]; dose 26 mg/kg): 62.97%
- Tumor Weight ([2]; dose 26 mg/kg): 0.59 ± 0.06 g
- Tumor Volume (mm3) (d 1) ([2]; dose 50 mg/kg, d 1): 103.79 ± 19.55 mm3
- Tumor Volume (mm3) (d30) ([2]; dose 50 mg/kg): 465.26 ± 52.94 mm3
- Relative Tumor Proliferation Rate (T/C) ([2]; dose 50 mg/kg): 29.05
- Relative Tumor Volume (RTV) ([2]; dose 50 mg/kg): 4.65 ± 1.27
- Inhibition Rate (%) ([2]; dose 52 mg/kg): 71.83%
- Tumor Weight ([2]; dose 52 mg/kg): 0.45 ± 0.14 g
- Body Weight (g) (d1) ([2]; mouse, in vivo, 13 mg/kg): 19.93 ± 1.20 g
- Body Weight (g) (d 15) ([2]; mouse, in vivo, 13 mg/kg): 22.70 ± 0.87 g
- Body Weight (g) (d1) ([2]; mouse, in vivo, 26 mg/kg): 19.45 ± 0.68 g
- Body Weight (g) (d 15) ([2]; mouse, in vivo, 26 mg/kg): 23.43 ± 1.41 g
- Body Weight (g) (d1) ([2]; mouse, in vivo, 52 mg/kg): 19.87 ± 1.17 g
- Body Weight (g) (d 15) ([2]; mouse, in vivo, 52 mg/kg): 23.25 ± 0.43 g
